Source: patent US20250090540A1, “PI3K-ALPHA INHIBITORS AND METHODS OF USE THEREOF” (Relay Therapeutics, Inc., priority 2021, published 2025)

What was measured:
[1] = biological target: H1047R PIK3CA enzyme (Homo sapiens, UniProt P42336, H1047R); test: ADP-Glo Biochemical PIK3CA Kinase Assay; conditions: ADP-Glo biochemical PIK3CA kinase assay
[2] = cells; conditions: Homo sapiens, MCF-10A, read-out: MCF10A I50

Sequence of H1047R PIK3CA enzyme (P42336 whole entry H1047R): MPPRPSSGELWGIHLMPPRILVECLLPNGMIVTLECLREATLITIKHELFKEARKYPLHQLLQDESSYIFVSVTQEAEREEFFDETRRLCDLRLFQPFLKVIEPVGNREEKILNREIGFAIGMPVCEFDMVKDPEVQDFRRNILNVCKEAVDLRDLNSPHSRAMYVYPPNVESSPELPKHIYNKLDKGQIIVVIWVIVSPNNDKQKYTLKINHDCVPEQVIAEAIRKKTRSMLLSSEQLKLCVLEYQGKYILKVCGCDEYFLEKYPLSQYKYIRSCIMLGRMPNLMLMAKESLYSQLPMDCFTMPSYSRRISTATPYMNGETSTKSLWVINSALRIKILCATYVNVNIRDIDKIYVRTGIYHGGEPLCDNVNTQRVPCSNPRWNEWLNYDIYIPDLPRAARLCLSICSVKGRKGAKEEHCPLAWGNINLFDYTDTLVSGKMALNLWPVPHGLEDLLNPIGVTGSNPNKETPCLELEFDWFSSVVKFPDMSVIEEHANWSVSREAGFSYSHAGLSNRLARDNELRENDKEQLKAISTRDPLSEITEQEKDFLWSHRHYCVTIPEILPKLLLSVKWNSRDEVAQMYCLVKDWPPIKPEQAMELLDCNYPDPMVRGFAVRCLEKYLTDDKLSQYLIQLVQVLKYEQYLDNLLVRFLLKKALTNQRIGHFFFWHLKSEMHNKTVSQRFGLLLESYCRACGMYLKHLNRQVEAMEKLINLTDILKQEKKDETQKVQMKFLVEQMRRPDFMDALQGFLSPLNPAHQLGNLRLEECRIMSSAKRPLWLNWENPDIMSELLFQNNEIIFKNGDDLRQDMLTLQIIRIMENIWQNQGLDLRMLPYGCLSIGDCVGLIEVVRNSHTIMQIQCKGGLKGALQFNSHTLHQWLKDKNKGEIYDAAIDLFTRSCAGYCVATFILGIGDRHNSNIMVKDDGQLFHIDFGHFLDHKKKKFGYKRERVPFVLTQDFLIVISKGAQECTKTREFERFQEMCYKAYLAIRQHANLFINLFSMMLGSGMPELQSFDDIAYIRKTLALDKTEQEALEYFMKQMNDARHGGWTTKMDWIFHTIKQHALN
Sequence of H1047R PIK3CA enzyme (P27986 whole entry partner): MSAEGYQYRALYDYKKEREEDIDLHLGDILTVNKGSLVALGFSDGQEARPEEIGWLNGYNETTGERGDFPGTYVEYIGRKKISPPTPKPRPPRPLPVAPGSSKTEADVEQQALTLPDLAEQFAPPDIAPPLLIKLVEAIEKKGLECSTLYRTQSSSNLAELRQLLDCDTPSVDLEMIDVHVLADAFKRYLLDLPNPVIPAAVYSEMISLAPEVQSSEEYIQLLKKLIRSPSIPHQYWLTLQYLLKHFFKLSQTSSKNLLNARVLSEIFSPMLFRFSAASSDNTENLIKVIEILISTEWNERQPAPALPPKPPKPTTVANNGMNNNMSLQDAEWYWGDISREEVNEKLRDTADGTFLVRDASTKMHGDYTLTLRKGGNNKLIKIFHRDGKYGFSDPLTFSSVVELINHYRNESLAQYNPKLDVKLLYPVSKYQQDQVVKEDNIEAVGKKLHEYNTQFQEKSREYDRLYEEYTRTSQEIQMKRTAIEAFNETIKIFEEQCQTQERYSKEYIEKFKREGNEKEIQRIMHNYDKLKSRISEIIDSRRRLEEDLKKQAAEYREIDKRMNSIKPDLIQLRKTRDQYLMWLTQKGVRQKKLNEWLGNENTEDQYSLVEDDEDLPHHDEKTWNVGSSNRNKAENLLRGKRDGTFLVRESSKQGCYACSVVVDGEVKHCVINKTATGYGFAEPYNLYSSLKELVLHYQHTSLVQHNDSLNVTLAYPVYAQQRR

Row | SMILES | IC50 [1] [µM] | IC50 [2] [µM]
1 | Cc1ccccc1Nc1ncncc1NC(=O)c1csc2ccccc12 [I-413] | 1 to 10 | 10 to 36
2 | CNC(=O)c1cnc(Nc2ccccc2C)c(NC(=O)c2cc3c(Cl)ccnc3[nH]2)c1 [I-424] | 10 to 100 | 36 to 100
3 | Cc1ccccc1Nc1ncc(C(=O)NC2CC(=O)N(C)C2)cc1NC(=O)c1csc2ccccc12 (centres unmarked) [I-434] | 0.1 to 0.5 | 5 to 10
4 | Cc1ccccc1Nc1ncc(N2CC(S(C)(=O)=O)C2)cc1NC(=O)c1csc2ccccc12 [I-436] | 0.5 to 1 | 10 to 36
5 | CNC(=O)c1cnc(Nc2ccccc2C)c(NC(=O)c2cnn3cccc(Br)c23)c1 [I-468] | 1 to 10 | 10 to 36
6 | CNC(=O)c1cnc(Nc2ccccc2C)c(NC(=O)c2cc3c(Br)cccn3c2)c1 [I-486] | 0.1 to 0.5 | 10 to 36
7 | Cc1ccccc1Nc1ncc(C(=O)Nc2cccnn2)cc1NC(=O)c1csc2ccccc12 [I-496] | 0.5 to 1 | 10 to 36
8 | CNC(=O)c1cnc(Nc2ccccc2C)c(NC(=O)C2(c3ccccc3Cl)CC2)c1 [I-499] | ≤ 0.1 | 10 to 36
9 | Cc1ccccc1Nc1ncc(C(=O)N[C@@H]2c3ccccc3C[C@@H]2O)cc1NC(=O)c1csc2ccccc12 [I-506] | 0.1 to 0.5 | 5 to 10
10 | Cc1ccccc1Nc1ncc(C(=O)Nc2cn(C)cn2)cc1NC(=O)c1csc2ccccc12 [I-508] | 0.1 to 0.5 | 10 to 36
11 | CNC(=O)c1cnc(Nc2ccccc2C)c(NC(=O)c2cc(Br)cc3c2cnn3C)c1 [I-510] | 0.1 to 0.5 | 10 to 36
12 | COc1cnccc1CCNC(=O)c1cnc(Nc2ccccc2C)c(NC(=O)c2csc3ccccc23)c1 [I-515] | 0.1 to 0.5 | 10 to 36
13 | Cc1ccccc1Nc1ncc(C(=O)NCC(F)F)cc1NC(=O)c1csc2ccccc12 [I-519] | ≤ 0.1 | 5 to 10
14 | CNC(=O)c1cnc(Nc2ccccc2C)c(NC(=O)c2n[nH]c3ccc(Br)cc23)c1 [I-520] | ≤ 0.1 | 10 to 36
15 | Cc1ccccc1Nc1ncc(C(=O)NCc2cnccc2C(F)(F)F)cc1NC(=O)c1csc2ccccc12 [I-525] | ≤ 0.1 | 10 to 36
16 | COC[C@@H](C)NC(=O)c1cnc(Nc2ccccc2C)c(NC(=O)c2csc3ccccc23)c1 [I-526] | 1 to 10 | 10 to 36
17 | CNC(=O)c1cnc(Nc2ccccc2C)c(NC(=O)c2cc(C#N)cc(C(F)(F)F)c2)c1 [I-527] | 0.1 to 0.5 | 5 to 10

Row | SMILES | IC50 [1] [µM] | IC50 [2] [µM]
18 | CNC(=O)c1cnc(Nc2ccccc2C)c(NC(=O)c2cccc3[nH]c(C(F)(F)F)nc23)c1 [I-530] | 0.1 to 0.5 | 10 to 36
19 | Cc1ccccc1Nc1ncc(C(=O)NCc2cnn(C(C)C)c2)cc1NC(=O)c1csc2ccccc12 [I-532] | 0.1 to 0.5 | 10 to 36
20 | Cc1ccccc1Nc1ncc(C(=O)N2CC(C#N)C2)cc1NC(=O)c1csc2ccccc12 [I-533] | 1 to 10 | 10 to 36
21 | Cc1ccccc1Nc1ncc(C(=O)NCc2ccc3c(c2)OCCO3)cc1NC(=O)c1csc2ccccc12 [I-534] | ≤ 0.1 | 10 to 36
22 | CNC(=O)c1cnc(Nc2ccccc2C)c(NC(=O)c2cnc(OC)c(C(F)(F)F)c2)c1 [I-535] | 1 to 10 | 10 to 36
23 | COc1ccnc(CNC(=O)c2cnc(Nc3ccccc3C)c(NC(=O)c3csc4ccccc34)c2)c1 [I-538] | 0.1 to 0.5 | 10 to 36
24 | Cc1ccccc1Nc1ncc(C(=O)Nc2ccc3cccnc3c2)cc1NC(=O)c1csc2ccccc12 [I-539] | 0.5 to 1 | 36 to 100
25 | Cc1ccccc1Nc1ncc(C(=O)NCc2nc(C3CC3)no2)cc1NC(=O)c1csc2ccccc12 [I-540] | ≤ 0.1 | 1 to 5
26 | Cc1ccccc1Nc1ncc(C(=O)NC2CCC(F)(F)C2)cc1NC(=O)c1csc2ccccc12 (centres unmarked) [I-544] | 0.1 to 0.5 | 10 to 36
27 | Cc1ccccc1Nc1ncc(C(=O)N[C@H]2CCCOC2)cc1NC(=O)c1csc2ccccc12 [I-545] | 0.1 to 0.5 | 1 to 5
28 | Cc1ccccc1Nc1ncc(C(=O)N[C@H]2CC[C@@H](F)C2)cc1NC(=O)c1csc2ccccc12 [I-546] | ≤ 0.1 | 5 to 10
29 | Cc1ccccc1Nc1ncc(C(=O)N[C@@H]2CC[C@@H](F)C2)cc1NC(=O)c1csc2ccccc12 [I-547] | 0.1 to 0.5 | 5 to 10
30 | Cc1ccccc1Nc1ncc(C(=O)NCc2ccon2)cc1NC(=O)c1csc2ccccc12 [I-560] | ≤ 0.1 | 1 to 5
31 | Cc1ccccc1Nc1ncc(C(=O)NCc2cnc3c(C)cccn23)cc1NC(=O)c1csc2ccccc12 [I-561] | 0.1 to 0.5 | 10 to 36
32 | Cc1ccccc1Nc1ncc(C(=O)NCC2CCN(C)C(=O)C2)cc1NC(=O)c1csc2ccccc12 (centres unmarked) [I-563] | 0.1 to 0.5 | 10 to 36
33 | CNC(=O)c1cnc(Nc2ccccc2C)c(NC(=O)c2ccc3nnc(Br)n3c2)c1 [I-564] | 0.5 to 1 | 10 to 36
34 | Cc1ccccc1Nc1ncc(C(=O)NC2NC(=O)c3ccccc32)cc1NC(=O)c1csc2ccccc12 (centres unmarked) [I-568] | ≤ 0.1 | 1 to 5
